Assay results published in US10226467B2, “Compounds for the treatment of myotonic dystrophy” (UNIVERSITAT DE VALÈNCIA, priority 2014, dated 2019).

How the values were obtained:
MBNL1 in DM1 myoblasts = assay: Quantification of Mbl expression or localization (anti-MBNL1 immunodetection); type: cell-based, human; settings: FIG. 6, at 1 microM, one day, versus DMSO
Description: Immortalized transdifferentiated DM1 fibroblasts were seeded in a […] (8000 cell/per well) in standard media. To achieve the differentiation of the fibroblast to myoblasts, we induced MyoD expression by changing the standard media to differentiation media with Doxocycline and without serum. 24 h after induction, the compounds were added the cells at different concentrations, always maintaining the concentration of the solvent (DMSO) at 1% in the media. Every concentration of compound was tested in three different wells. 24 h after adding the compounds the cells were fixed with paraformaldehyde 4% in PBS and Mbl detection using monoclonal anti-MBNL1 antibody was performed counterstaining with Hoechst to detect the nuclei. Incell 200 plate reader confocal was used for detection and quantification of the parameters selected and the data was analyzed using Graphpad software for statistical comparison of results.

[1] = test system: ribonuclear foci in DM1 fibroblasts; assay: Ribonuclear foci per cell (in situ hybridization of CUG repeat RNA); type: cell-based, human; settings: FIG. 4, versus DMSO
Excerpt: Its reduction is typically used as evidence of desired activity against myotonic dystrophy in cell culture models because MBNL proteins are sequestered in ribonuclear foci. Since MBNL proteins are limiting in myotonic dystrophies an increase in free MBNLs is expected to be therapeutic. • Evidences from Human Myoblasts:
Cell model of the disease (provided by the D. Furling's laboratory, Institute of Myologie, Paris) consisted of normal and DM1 (1300 CTG repeats) immortalized (hTERT) skin fibroblasts expressing conditional MyoD. Fibroblast cells were grown in Dulbecco's Modified Eagle Medium (DMEM) with 4.5 g/L of glucose, 1% of penicillin and streptomycin (P/S) and 10% foetal bovine serum (FBS) (Sigma). Fibroblasts were transdifferentiated in myoblasts by inducing expression of MyoD. […]
In situ hybridization with CUG repeat RNA. […] Images were taken using a Leica DM2500 fluorescence microscope and foci were manually counted from at least 50 cells per compound.
DM1 fibroblasts were seeded in a […] (8000 cell/per well) in standard media one day before adding the compounds to the media. […] Incell 200 plate reader confocal was used for detection and quantification of the parameters selected and the data was analyzed using Graphpad software for statistical comparison of results.

[2] = test system: 6-FAM-(CUG)23 probe (CUG repeats RNA); assay: Fluorescence polarization assay of binding to CUG repeat RNA; settings: FIG. 2; increasing concentrations; compared to a control compound that does not bind CUG repeats
Description: This was assessed in fluorescence polarization spectroscopy experiments. In these tests, when polarized light excites a fluorophore conjugated to a small molecule, it undergoes rotational diffusion faster than the time required for light emission occurs, resulting in a random arrangement of the molecule in the fluorescence emission time (depolarization). However, the rotation of the molecule becomes slower depending on the viscosity of the medium or the molecular volume, increasing the polarization of the emitted light. Thus, by measuring changes in polarization of an RNA with 23 CUG repeats conjugated to the fluorophore carboxyfluorescein, FAM (CUG) 23, we can consider whether a candidate molecule binds to the RNA.
Fluorescent CUG RNA (carboxyfluorescein (6-FAM)-labeled) was incubated with increasing concentrations of example compounds. […]
Carboxyfluorescein-labeled CUG RNA (6-FAM-CUG23) at 6 nM was incubated with the compounds at different concentrations in binding buffer (50 mM Tris-HCl pH 7.0, 250 mM NaCl, 50 μM ZnCl2, 10% glycerol, 1 mM DTT) on ice for 20 min in the dark. Polarization was measured in an EnVision® Multilabel Reader using as excitation filter FP480 and as emission filter FP535.

[3] = test system: 6-FAM-(CUG)23 probe (CUG repeats RNA); settings: positive control, Warf et al. 2009; cited from earlier work

Row | SMILES | Mbl staining intensity in nuclei (MBNL1 in DM1 myoblasts) | further results
1 | Cn1c(=O)[nH]c2ncn(C)c2c1=O [Compound 6, 1,7-Dimethylxanthine] | increase significantly | 
2 | CC(C)Cn1c(=O)n(C)c(=O)c2[nH]cnc21 [Compound 7, 3-Isobutyl-1-methylxanthine] | increase significantly | 
3 | Cn1c(=O)[nH]c(=O)c2[nH]cnc21 [Compound 8, 3-Methylxanthine] | increase significantly | 
4 | CCCn1c(=O)c2[nH]cnc2n(CC)c1=O [Compound 9, 3-Ethyl-1-propylxanthine] | increase significantly | 
5 | Cn1c(=O)c2c(ncn2CCCCCCCn2cnc3c2c(=O)n(C)c(=O)n3C)n(C)c1=O [Theophylline-C7] |  | mean number of ribonuclear foci per cell [1]: significantly decreased
6 | Cn1c(=O)c2c(ncn2CCCCCCCCCn2cnc3c2c(=O)n(C)c(=O)n3C)n(C)c1=O [Theophylline-C9] |  | binding to CUG repeats (polarization of 6-FAM-(CUG)23 probe relative to probe alone) [2]: very strong bond; mean number of ribonuclear foci per cell [1]: significantly decreased
7 | N=C(N)c1ccc(OCCCCCOc2ccc(C(=N)N)cc2)cc1 [pentamidine] |  | binding to CUG repeats (previously shown) [3]: attached to the CUG repeats
